Drawing on PubChem BioAssay AID1963844 (Molecular Pharmacology Branch, DTP, NCI, 2024), this text covers viability, T/C and IC50 for 6 compounds.

In the assay the test system is 422866-222-R5-J1-PDC complex spheroid viability. Kind of assay: Anticancer human tumor 422866-222-R5-J1-PDC patient-derived pancreatic adenocarcinoma cell line growth inhibition [POLQ]. As to conditions: for viability, T/C: stronger effect = lower value. As to the method:
Multicellular complex tumor spheroid response to Polymerase (POL) inhibitors (novobiocin, ART-558, RP6685) in combination with a variety of drugs and investigational agents in selected tumor cell lines
The POL inhibitors (novobiocin, ART-558, and RP6685) were evaluated both individually and in combination with standard of care and investigational anticancer small molecules within a complex spheroid model of solid tumors. . Complex spheroids include a stromal component modeled by human endothelial cells (HUVEC) and fibroblasts modeled by human mesenchymal stem cells (MSCs). The concentration ranges selected for each drug and investigational agent were based upon clinically achievable concentrations if the clinical Cmax of the agent was known.
Compounds. The drugs and investigational agents: novobiocin (NSC847541), ART-558 (NSC835418), RP-6685 (NSC848927), peposertib (NSC802822), ceralasertib (NSC780249), elimusertib (NSC800525), camonsertib (NSC841442), AZD-1390 (NSC803789), olaparib (NSC753686), talazoparib (NSC767125), rucaparib (NSC756644), sotorasib (NSC818433), MRTX-1133 (NSC836407), SN-38 (NSC673596), topotecan (NSC609699), epotoside (NSC141540), doxorubicin (NSC123127), gemcitabine (NSC613327), 5-fluorouracil (NSC19893), paclitaxel (NSC125973), vemurafenib (NSC761431), MSA-2 (NSC828583), SN-011 (NSC837082), adavosertib (NSC754352), prexasertib (NSC758257), carboplatin (NSC241240) and oxaliplatin (NSC266046), were obtained from the National Cancer Institute (NCI) Developmental Therapeutics Program Chemical Repository (21). The FDA-approved anticancer drug set is available from the Developmental Therapeutics Program at https://dtp.cancer.gov/organization/dscb/obtaining/. […] The stock solutions were prepared in dimethyl sulfoxide (DMSO, Sigma-Aldrich, St. Louis, MO, cat. D2650), except for the platinum compounds which were prepared in saline (Quality Biological, Gaithersburg, MD, cat. 114-055-101), at 800-fold the tested concentration and stored at -70 degrees C prior to their use. All drugs and investigational agents were tested over a range starting from a high concentration at or near the clinical Cmax and decreasing in half-log increments. If the clinical Cmax for an agent had not been determined, the highest concentration tested was 10 microM, except for SN-38, which was tested at a high concentration of 1 microM.
Cell Culture. All cells were maintained in an incubator at 37 degrees C and 5% CO2 with 95% humidity. The PDC lines were cultured according to standard operating procedures established by the NCI PDMR (https://pdmr.cancer.gov). Table 3 of the manuscript, lists the cell lines along with the number of the three cell types plated to form the mct-spheroids and media for tumor cell growth. After thawing, all PDC lines, except 997537-175-T-J1-PDC and 415267-285-R-J2-PDC, were cultured in Matrigel-coated flasks prepared with a working solution of 1X Ham's F-12 nutrient mix, without supplementation (Thermo Fisher Scientific, cat. 11765054), 100 U/mL penicillin-streptomycin (Thermo Fisher Scientific, cat. 15140122), and 2.5% Matrigel (Corning Inc., Corning, NY, cat. 354248) for the first three passages. The two PDC lines 997537-175-T-J1-PDC and 415267-285-R-J2-PDC were cultured on uncoated flasks. The 857933-349-R-J2-PDC line was cultured in 6C/Colon 1B media containing advanced DMEM/F-12 (Thermo Fisher Scientific, cat. 12634028), 10 mM HEPES (Thermo Fisher Scientific, cat. 15630080), 1X GlutaMAX supplement (Thermo Fisher Scientific, cat. 35050061), 0.1 mg/mL primocin (InvivoGen, San Diego, CA, cat. ant-pm-2), 10% defined fetal bovine serum, heat inactivated (HyClone Laboratories Inc., Logan, UT, cat. SH30070.03HI), 50% L-WRN conditioned media (ATCC, cat. CRL-3276), 1.25 mM N-Acetyl-L-cysteine (Sigma-Aldrich, cat. A9165), 10 mM nicotinamide (Sigma-Aldrich, cat. N0636), 1X B-27 supplement (Thermo Fisher Scientific, cat. 17504044), 1X N-2 supplement (Thermo Fisher Scientific, cat. […]

The mark [1] stands for this setting: curve of first compound, second compound 0.0316 µM.
Setting [2] is: curve of first compound, second compound 0.1 µM.
[3] abbreviates: curve of first compound, second compound 0.316 µM.
Where [4] appears, read: curve of first compound, second compound 1 µM.
Where [5] appears, read: curve of first compound, second compound 3.16 µM.
[6] abbreviates: curve of first compound, second compound 10 µM.
[7] abbreviates: second compound 0.0316 µM, first compound 0.0316 µM.
Where [8] appears, read: second compound 0.0316 µM, first compound 0.1 µM.
Where [9] appears, read: second compound 0.0316 µM, first compound 0.316 µM.
The mark [10] stands for this setting: second compound 0.0316 µM, first compound 1 µM.
Where [11] appears, read: second compound 0.0316 µM, first compound 3.16 µM.
[12] abbreviates: second compound 0.0316 µM, first compound 10 µM.
Setting [13] is: second compound 0.1 µM, first compound 0.0316 µM.
The mark [14] stands for this setting: second compound 0.1 µM, first compound 0.1 µM.
[15] abbreviates: second compound 0.1 µM, first compound 0.316 µM.
[16] abbreviates: second compound 0.1 µM, first compound 1 µM.
Where [17] appears, read: second compound 0.1 µM, first compound 3.16 µM.
Where [18] appears, read: second compound 0.1 µM, first compound 10 µM.
Setting [19] is: second compound 0.316 µM, first compound 0.0316 µM.
[20] abbreviates: second compound 0.316 µM, first compound 0.1 µM.
Setting [21] is: second compound 0.316 µM, first compound 0.316 µM.
The mark [22] stands for this setting: second compound 0.316 µM, first compound 1 µM.
[23] abbreviates: second compound 0.316 µM, first compound 3.16 µM.
The mark [24] stands for this setting: second compound 0.316 µM, first compound 10 µM.
[25] abbreviates: second compound 1 µM, first compound 0.0316 µM.
Setting [26] is: second compound 1 µM, first compound 0.1 µM.
Where [27] appears, read: second compound 1 µM, first compound 0.316 µM.
[28] abbreviates: second compound 1 µM, first compound 1 µM.
Setting [29] is: second compound 1 µM, first compound 3.16 µM.
Where [30] appears, read: second compound 1 µM, first compound 10 µM.
Setting [31] is: second compound 3.16 µM, first compound 0.0316 µM.
Where [32] appears, read: second compound 3.16 µM, first compound 0.1 µM.
[33] abbreviates: second compound 3.16 µM, first compound 0.316 µM.
[34] abbreviates: second compound 3.16 µM, first compound 1 µM.
The mark [35] stands for this setting: second compound 3.16 µM, first compound 3.16 µM.
Where [36] appears, read: second compound 3.16 µM, first compound 10 µM.
Setting [37] is: second compound 10 µM, first compound 0.0316 µM.
Setting [38] is: second compound 10 µM, first compound 0.1 µM.
[39] abbreviates: second compound 10 µM, first compound 0.316 µM.
Where [40] appears, read: second compound 10 µM, first compound 1 µM.
Setting [41] is: second compound 10 µM, first compound 3.16 µM.
Setting [42] is: second compound 10 µM, first compound 10 µM.

As usually defined, the viability, T/C is the result in the treated group divided by that in the control group, in per cent. A word on the IC50: it is the concentration that gives 50% inhibition.

Values joined by “and” are separate entries in the source; they are usually repeats but may differ in a detail not shown here. Identical values can stand only once.
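Note: spheroids exposed to compounds for one week before readout.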
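Throughout, for viability, T/C: percent of DMSO vehicle wells luminescence so 100% = untreated viability.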

Turning to `C#Cc1c(F)ccc2cc(O)cc(-c3ncc4c(N5CC6CCC(C5)N6)nc(OCC56CCCN5CC(F)C6)nc4c3F)c12` (stereo not given), the viability, T/C was 93% and 91.1% and 102% (compound 0.0316 µM); 80.5% and 89.6% and 83.2% (compound 0.1 µM); 60.1% and 59.7% and 68.7% (compound 0.316 µM); 44% and 50.6% and 51.8% (compound 1 µM); 33.9% and 34.4% and 34.3% (compound 3.16 µM); 26.9% and 24.2% and 26% (compound 10 µM). Further, the IC50 (curve of compound) was 666 nM and 869 nM and 1060 nM.

Regarding `CC1COCCN1c1cc(C2(O)CC3CCC(C2)O3)c2cnn(-c3ccn[nH]3)c2n1` (stereo not given), the viability, T/C was 81.2% and 74.1% and 69.6% (compound 0.0316 µM); 53.5% and 43.4% and 42.3% (compound 0.1 µM); 50.6% and 44.2% and 35.5% (compound 0.316 µM); 84% and 70.7% and 73.2% (compound 1 µM); 80.6% and 79% and 77.3% (compound 3.16 µM); 65.8% and 78.8% and 62.6% (compound 10 µM). In addition, the IC50 (curve of compound) is more than 10000 nM.

With `Cc1cccc(N(C)C(=O)C2C(O)CCN2c2nc(C)cc(C(F)(F)F)c2C#N)c1` (stereo not given), the viability, T/C is 93.7% [middle of 13 runs] (compound 0.1 µM), 94.8% [middle of 13 runs] (compound 0.316 µM) and 99.8% [middle of 13 runs] (compound 10 µM). For the same compound, the IC50 reads like this: (compound alone, run of 11/27/2023) more than 10000 nM; (compound alone, run of 12/05/2023) more than 10000 nM.

For `O=C(Nc1ccc(O)c(NS(=O)(=O)c2ccc(F)cc2)c1)c1ccc(-c2ccccc2)cc1`, the viability, T/C runs as follows: (compound 0.0316 µM) 110% and 86.1% and 107%; (compound 0.1 µM) 79.5% and 94.1% and 96.3%; (compound 0.316 µM) 78.5% and 81.6% and 79.1%; (compound 1 µM) 90.2% and 93.1% and 97.9%; (compound 3.16 µM) 90% and 107% and 97.1%; (compound 10 µM) 106% and 113% and 128%. Under “curve of compound”, the IC50 is more than 10000 nM.

Turning to `COc1cccc2c1C(=O)c1c(O)c3c(c(O)c1C2=O)CC(O)(C(=O)CO)CC3OC1CC(N)C(O)C(C)O1` (stereo not given) + COC1C(OC(N)=O)C(O)C(Oc2ccc3c(O)c(NC(=O)c4ccc(O)c(CC=C(C)C)c4)c(=O)oc3c2C)OC1(C)C, the IC50 runs as follows: under setting [1], 242 nM; under setting [2], 225 nM; under setting [3], 236 nM; under setting [4], 250 nM; under setting [5], 217 nM; under setting [6], 224 nM. For the same compound, the viability, T/C reads like this: under setting [7], 60.2%; under setting [8], 110%; under setting [9], 39.3%; under setting [10], 29.7%; under setting [11], 30%; under setting [12], 35.5%. The viability, T/C came out at 75.5% under setting [13]; 94.4% under setting [14]; 35.4% under setting [15]; 25.3% under setting [16]; 28.9% under setting [17]; 33.3% under setting [18]. Further, the viability, T/C under setting [19] is 67.5%; the viability, T/C under setting [20] was 102%; the viability, T/C under setting [21] turned out to be 38.1%; the viability, T/C under setting [22] amounted to 26.9%; the viability, T/C under setting [23] was found to be 26.9%; the viability, T/C under setting [24] turned out to be 30.9%. For the same compound, the viability, T/C came out at 71.2% under setting [25]; 104% under setting [26]; 40.3% under setting [27]; 21.8% under setting [28]; 26.9% under setting [29]; 29.5% under setting [30]. Further, the viability, T/C reads like this: under setting [31], 54.5%; under setting [32], 107%; under setting [33], 35%; under setting [34], 23.9%; under setting [35], 25.6%; under setting [36], 38.9%. Besides, the viability, T/C is, setting by setting: under setting [37], 56.1%; under setting [38], 106%; under setting [39], 36.8%; under setting [40], 26.7%; under setting [41], 28.9%; under setting [42], 29.8%.

With `O=C(c1cc(Cc2n[nH]c(=O)c3ccccc23)ccc1F)N1CCN(C(=O)C2CC2)CC1` + COC1C(OC(N)=O)C(O)C(Oc2ccc3c(O)c(NC(=O)c4ccc(O)c(CC=C(C)C)c4)c(=O)oc3c2C)OC1(C)C, the IC50 runs as follows: under setting [1], less than 31.6 nM; under setting [2], less than 31.6 nM; under setting [3], less than 31.6 nM; under setting [4], less than 31.6 nM; under setting [5], less than 31.6 nM; under setting [6], less than 31.6 nM. Moreover, the viability, T/C by setting is: under setting [7], 40.5%; under setting [8], 40.1%; under setting [9], 42.3%; under setting [10], 38.2%; under setting [11], 34%; under setting [12], 27.5%. The viability, T/C was determined as 40.1% under setting [13]; 42.5% under setting [14]; 41.2% under setting [15]; 35.4% under setting [16]; 36.4% under setting [17]; 26.3% under setting [18]. Besides, the viability, T/C runs as follows: under setting [19], 43.5%; under setting [20], 35.9%; under setting [21], 35.7%; under setting [22], 37.9%; under setting [23], 31%; under setting [24], 27.5%. Besides, the viability, T/C is, setting by setting: under setting [25], 35.9%; under setting [26], 32%; under setting [27], 37.1%; under setting [28], 37.4%; under setting [29], 27.4%; under setting [30], 24.5%. The viability, T/C came to 39.9% under setting [31]; 34.6% under setting [32]; 38.4% under setting [33]; 36.7% under setting [34]; 33.7% under setting [35]; 28.3% under setting [36]. Moreover, the viability, T/C is, setting by setting: under setting [37], 38.9%; under setting [38], 30.9%; under setting [39], 35.7%; under setting [40], 32.9%; under setting [41], 29.3%; under setting [42], 27.8%.
